Data from patent US20120245177A1, “CRYSTALLINE LEVOFOLINIC ACID AND PROCESS FOR ITS PREPARATION” (GMT FINE CHEMICALS SA, priority 2011, published 2012).

Assays:
[1] = Accelerated stability test (ICH conditions); type: physicochemical; settings: accelerated: 40±2° C., 75±5% relative humidity; for Assay of Levofolinic acid (% m/m): anhydrous and solvent free basis; for Appearance: specification white to pale yellow powder
Procedure: Two specimens of the product obtained in example 1 are subjected to accelerated stability tests and long-term stability tests, respectively; the tests are carried out according to ICH conditions. Accelerated: 40±2° C., 75±5% relative humidity Analytical methods used for the stability studies tests are described in the calcium levofolinate monograph of the European Pharmacopoeia.

[2] = Long-term stability test (ICH conditions); type: physicochemical; settings: long-term: 25±2° C., 60±5% relative humidity; for Assay of Levofolinic acid (% m/m): anhydrous and solvent free basis; for Appearance: specification white to pale yellow powder
Procedure: Two specimens of the product obtained in example 1 are subjected to accelerated stability tests and long-term stability tests, respectively; the tests are carried out according to ICH conditions. Long-term: 25±2° C., 60±5% relative humidity Analytical methods used for the stability studies tests are described in the calcium levofolinate monograph of the European Pharmacopoeia.

SMILES: Nc1nc(=O)c2c([nH]1)NC[C@H](CNc1ccc(C(=O)N[C@@H](CCC(=O)O)C(=O)O)cc1)N2C=O [Example 1, (6S)—N(5)-formyl-5,6,7,8-tetrahydrofolic acid]
- Aspect of a 1.0% w/v solution in Tris buffer solution corrected at pH = 8.1: Absorbance at 420 nm ([1]; 0 months): 0.06
- Content of Dextrofolinic acid (H) ([1]; 0 months): <0.10%
- Optical rotation of a 1.0% w/v solution in Tris solution corrected at pH = 8.1 ([1]; 0 months): −12.8 °
- Related substances: 5-CHO—4H-Pteroic acid (E) (% area) ([1]; 0 months): 0.36 % area
- Related substances: Any individual unknown impurities ([1]; 0 months): <0.10 % area
- Related substances: Dihydrofolic acid (G) (% area) ([1]; 0 months): <0.10 % area
- Related substances: Folic acid (C) (% area) ([1]; 0 months): <0.10 % area
- Related substances: N^5-N^10-diformyl-THF (B) (% area) ([1]; 0 months): <0.10 % area
- Related substances: N^10—CHO-dihydrofolic acid (F) (% area) ([1]; 0 months): <0.10 % area
- Related substances: N^10—CHO-folic acid (D) (% m/m) ([1]; 0 months): <0.10 % m/m
- Related substances: PABG (A) (% area) ([1]; 0 months): <0.10 % area
- Sum of all relates substances (% area) ([1]; 0 months): 0.57 % area
- Water content (%) ([1]; 0 months): 0.8%
- Assay of Levofolinic acid (% m/m) ([1]; 0 months): 99.7 % m/m
- Appearance ([1]; 0 months): Conform
- Aspect of a 1.0% w/v solution in Tris buffer solution corrected at pH = 8.1: Absorbance at 420 nm ([1]; 3 months): 0.05
- Related substances: 5-CHO—4H-Pteroic acid (E) (% area) ([1]; 3 months): 0.37 % area
- Related substances: Any individual unknown impurities ([1]; 3 months): <0.10 % area
- Related substances: Dihydrofolic acid (G) (% area) ([1]; 3 months): <0.10 % area
- Related substances: Folic acid (C) (% area) ([1]; 3 months): <0.10 % area
- Related substances: N^5-N^10-diformyl-THF (B) (% area) ([1]; 3 months): <0.10 % area
- Related substances: N^10—CHO-dihydrofolic acid (F) (% area) ([1]; 3 months): 0.16 % area
- Related substances: N^10—CHO-folic acid (D) (% m/m) ([1]; 3 months): <0.10 % m/m
- Related substances: PABG (A) (% area) ([1]; 3 months): <0.10 % area
- Sum of all relates substances (% area) ([1]; 3 months): 0.63 % area
- Water content (%) ([1]; 3 months): 0.8%
- Assay of Levofolinic acid (% m/m) ([1]; 3 months): 99.9 % m/m
- Appearance ([1]; 3 months): Conform
- Aspect of a 1.0% w/v solution in Tris buffer solution corrected at pH = 8.1: Absorbance at 420 nm ([1]; 6 months): 0.06
- Content of Dextrofolinic acid (H) ([1]; 6 months): <0.10%
- Related substances: 5-CHO—4H-Pteroic acid (E) (% area) ([1]; 6 months): 0.33 % area
- Related substances: Any individual unknown impurities ([1]; 6 months): <0.10 % area
- Related substances: Dihydrofolic acid (G) (% area) ([1]; 6 months): <0.10 % area
- Related substances: Folic acid (C) (% area) ([1]; 6 months): <0.10 % area
- Related substances: N^5-N^10-diformyl-THF (B) (% area) ([1]; 6 months): <0.10 % area
- Related substances: N^10—CHO-dihydrofolic acid (F) (% area) ([1]; 6 months): 0.25 % area
- Related substances: N^10—CHO-folic acid (D) (% m/m) ([1]; 6 months): <0.10 % m/m
- Related substances: PABG (A) (% area) ([1]; 6 months): 0.13 % area
- Sum of all relates substances (% area) ([1]; 6 months): 0.84 % area
- Water content (%) ([1]; 6 months): 1.1%
- Assay of Levofolinic acid (% m/m) ([1]; 6 months): 99.0 % m/m
- Appearance ([1]; 6 months): Conform
- Aspect of a 1.0% m/V solution in Tris solution corrected at pH = 8.1: Absorbance at 420 nm ([2]; 0 months): 0.06
- Content of Dextrofolinic acid (H) ([2]; 0 months): <0.10%
- Optical rotation of a 1.0% m/V solution in Tris solution corrected at pH = 8.1 ([2]; 0 months): −12.8 °
- Related substances: 5-CHO-4H-Pteroic acid (E) (% area) ([2]; 0 months): 0.36 % area
- Related substances: Any individual unknown impurities ([2]; 0 months): <0.10 % area
- Related substances: Dihydrofolic acid (G) (% area) ([2]; 0 months): <0.10 % area
- Related substances: Folic acid (C) (% area) ([2]; 0 months): <0.10 % area
- Related substances: N^5-N^10-diformyl-THF (B) (% area) ([2]; 0 months): <0.10 % area
- Related substances: N^10-CHO-dihydrofolic acid (F) (% area) ([2]; 0 months): <0.10 % area
- Related substances: N^10-CHO-folic acid (D) (% m/m) ([2]; 0 months): <0.10 % m/m
- Related substances: PABG (A) (% area) ([2]; 0 months): <0.10 % area
- Sum of all relates substances (% area) ([2]; 0 months): 0.57 % area
- Water content (%) ([2]; 0 months): 0.8%
- Assay of Levofolinic acid (% m/m) ([2]; 0 months): 99.7 % m/m
- Appearance ([2]; 0 months): Conform
- Aspect of a 1.0% m/V solution in Tris solution corrected at pH = 8.1: Absorbance at 420 nm ([2]; 3 months): 0.05
- Related substances: 5-CHO-4H-Pteroic acid (E) (% area) ([2]; 3 months): 0.31 % area
- Related substances: Any individual unknown impurities ([2]; 3 months): <0.10 % area
- Related substances: Dihydrofolic acid (G) (% area) ([2]; 3 months): <0.10 % area
- Related substances: Folic acid (C) (% area) ([2]; 3 months): <0.10 % area
- Related substances: N^5-N^10-diformyl-THF (B) (% area) ([2]; 3 months): <0.10 % area
- Related substances: N^10-CHO-dihydrofolic acid (F) (% area) ([2]; 3 months): 0.13 % area
- Related substances: N^10-CHO-folic acid (D) (% m/m) ([2]; 3 months): <0.10 % m/m
- Related substances: PABG (A) (% area) ([2]; 3 months): <0.10 % area
- Sum of all relates substances (% area) ([2]; 3 months): 0.49 % area
- Water content (%) ([2]; 3 months): 0.8%
- Assay of Levofolinic acid (% m/m) ([2]; 3 months): 100.6 % m/m
- Appearance ([2]; 3 months): Conform
- Aspect of a 1.0% m/V solution in Tris solution corrected at pH = 8.1: Absorbance at 420 nm ([2]; 6 months): 0.06
- Content of Dextrofolinic acid (H) ([2]; 6 months): <0.10%
- Related substances: 5-CHO-4H-Pteroic acid (E) (% area) ([2]; 6 months): 0.34 % area
- Related substances: Any individual unknown impurities ([2]; 6 months): <0.10 % area
- Related substances: Dihydrofolic acid (G) (% area) ([2]; 6 months): <0.10 % area
- Related substances: Folic acid (C) (% area) ([2]; 6 months): <0.10 % area
- Related substances: N^5-N^10-diformyl-THF (B) (% area) ([2]; 6 months): <0.10 % area
- Related substances: N^10-CHO-dihydrofolic acid (F) (% area) ([2]; 6 months): 0.15 % area
